Like-named read-outs stand apart in the source and are kept apart here.
Assays:
NaV1.8 [1] = biological target: T1, NaV1.8 (Homo sapiens, UniProt Q9Y5Y9); experiment: Activity against NaV 1.8 channel (Table 4); type: cell-based
Method: Compounds of the invention are useful as antagonists of voltage-gated sodium ion channels. Antagonist properties of test compounds were assessed as follows. Cells expressing the NaV of interest were placed into microtiter plates. After an incubation period, the cells were stained with fluorescent dyes sensitive to the transmembrane potential. The test compounds were added to the microtiter plate. The cells were stimulated with either a chemical or electrical means to evoke a NaV dependent membrane potential change from unblocked channels, which was detected and measured with trans-membrane potential-sensitive dyes. Antagonists were detected as a decreased membrane potential response to the stimulus. The optical membrane potential assay utilized voltage-sensitive FRET sensors described by Gonzalez and Tsien (See, Gonzalez, J. E. and R. Y. Tsien (1995) “Voltage sensing by fluorescence resonance energy transfer in single cells” Biophys J 69(4): 1272-80, and Gonzalez, J. E. and R. Y. Tsien (1997) “Improved indicators of cell membrane potential that use fluorescence resonance energy transfer” Chem Biol 4(4): 269-77) in combination with instrumentation for measuring fluorescence changes such as the Voltage/Ion Probe Reader (VIPR®) (See, Gonzalez, J. E., K. Oades, et al. (1999) “Cell-based assays and instrumentation for screening ion-channel targets” Drug Discov Today 4(9): 431-439).
24 hours before the assay on VIPR, CHO cells endogenously expressing a NaV1.2 type voltage-gated NaV are seeded in 96-well poly-lysine coated plates at 60,000 cells per well. […] The cells are then incubated for 20-30 minutes. • 7) Once the incubation is complete, the cells are ready to be assayed on VIPR® with a sodium addback protocol. […]
Control responses are obtained by performing assays in the presence of a compound with the desired properties (positive control), such as tetracaine, and in the absence of pharmacological agents (negative control). Responses to the negative (N) and positive (P) controls are calculated as above. […]

NaV1.8 [2] = biological target: T1, NaV1.8; conditions: read-out: TTX IC50; cited from earlier work
[3] = in vivo; cited from earlier work

T1 sequence (Q9Y5Y9 whole entry, looked up): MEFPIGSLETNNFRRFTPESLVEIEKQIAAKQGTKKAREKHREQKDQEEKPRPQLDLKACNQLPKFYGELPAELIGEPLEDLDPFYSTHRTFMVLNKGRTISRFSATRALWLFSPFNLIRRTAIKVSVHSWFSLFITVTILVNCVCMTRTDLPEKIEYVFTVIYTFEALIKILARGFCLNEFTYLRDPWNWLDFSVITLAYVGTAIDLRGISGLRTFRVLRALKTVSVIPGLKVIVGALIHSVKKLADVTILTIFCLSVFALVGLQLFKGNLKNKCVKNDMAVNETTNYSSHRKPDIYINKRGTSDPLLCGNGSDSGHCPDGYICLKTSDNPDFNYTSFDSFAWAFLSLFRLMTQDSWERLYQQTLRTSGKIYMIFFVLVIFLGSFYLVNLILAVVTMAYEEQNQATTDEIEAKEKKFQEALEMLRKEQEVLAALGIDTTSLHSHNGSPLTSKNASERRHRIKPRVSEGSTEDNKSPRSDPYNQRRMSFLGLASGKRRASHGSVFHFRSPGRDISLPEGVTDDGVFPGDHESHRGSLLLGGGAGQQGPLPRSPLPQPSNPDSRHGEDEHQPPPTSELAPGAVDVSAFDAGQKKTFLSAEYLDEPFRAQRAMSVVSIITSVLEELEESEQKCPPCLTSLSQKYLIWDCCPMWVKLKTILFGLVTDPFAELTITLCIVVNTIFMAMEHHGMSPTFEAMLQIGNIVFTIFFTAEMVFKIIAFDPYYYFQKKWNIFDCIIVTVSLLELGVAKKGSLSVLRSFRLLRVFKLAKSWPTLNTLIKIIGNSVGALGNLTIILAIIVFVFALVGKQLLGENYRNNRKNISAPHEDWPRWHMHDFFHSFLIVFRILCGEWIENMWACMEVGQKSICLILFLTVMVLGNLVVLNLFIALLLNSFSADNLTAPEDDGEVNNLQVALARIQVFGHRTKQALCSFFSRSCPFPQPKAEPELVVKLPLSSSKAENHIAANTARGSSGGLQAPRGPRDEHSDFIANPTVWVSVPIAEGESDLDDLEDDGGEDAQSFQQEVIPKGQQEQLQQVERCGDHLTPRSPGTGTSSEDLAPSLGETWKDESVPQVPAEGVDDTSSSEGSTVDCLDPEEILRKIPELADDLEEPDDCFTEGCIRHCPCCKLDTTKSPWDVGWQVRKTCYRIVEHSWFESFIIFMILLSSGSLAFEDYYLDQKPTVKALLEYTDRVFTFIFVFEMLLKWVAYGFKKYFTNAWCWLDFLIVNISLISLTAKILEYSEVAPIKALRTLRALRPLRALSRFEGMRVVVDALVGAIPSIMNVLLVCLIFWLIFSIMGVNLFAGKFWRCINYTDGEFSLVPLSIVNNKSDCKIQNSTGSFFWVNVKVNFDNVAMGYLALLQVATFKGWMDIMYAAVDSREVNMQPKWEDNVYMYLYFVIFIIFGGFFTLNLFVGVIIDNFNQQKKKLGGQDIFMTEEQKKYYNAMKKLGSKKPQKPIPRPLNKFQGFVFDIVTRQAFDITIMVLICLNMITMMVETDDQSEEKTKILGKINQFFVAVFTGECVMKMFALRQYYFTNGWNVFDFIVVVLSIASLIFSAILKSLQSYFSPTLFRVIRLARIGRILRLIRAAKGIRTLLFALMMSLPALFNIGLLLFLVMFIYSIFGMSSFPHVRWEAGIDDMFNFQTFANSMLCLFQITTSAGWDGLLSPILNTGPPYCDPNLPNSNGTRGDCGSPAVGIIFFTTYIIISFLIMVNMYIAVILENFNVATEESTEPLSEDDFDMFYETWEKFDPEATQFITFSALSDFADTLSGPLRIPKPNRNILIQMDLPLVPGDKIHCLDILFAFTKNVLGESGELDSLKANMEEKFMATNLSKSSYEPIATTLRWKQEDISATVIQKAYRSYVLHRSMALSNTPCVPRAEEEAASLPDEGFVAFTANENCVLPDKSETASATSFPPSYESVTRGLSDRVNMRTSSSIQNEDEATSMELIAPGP

Compound	IC50 (NaV1.8 [1]) [µM]	further results
CC(C)CC(O)C(=O)N1CCN(c2cccc(-c3ccccc3O)c2)CC1 (centres unmarked) [Compound 1, 2-hydroxy-1-[4-[3-(2-hydroxyphenyl)phenyl]piperazin-1-yl]-4-methyl-pentan-1-one]	> 15	–
NC1=N[C@H](O)[C@H]2[C@H]3O[C@]4(O)O[C@@H]([C@@H](O)[C@@]2(N1)[C@@H]4O)[C@]3(O)CO [TTX, tetrodotoxin]	–	IC50 (NaV1.8 [2]): > 50 µM
NCC1(CC(=O)O)CCCCC1 [Gabapentin]	–	share of patients in which it works [3]: 60%
CC(C)COC(=O)N1CCN(c2cccc(-c3ccccc3O)c2)CC1 [Compound 3, 4-[3-(2-hydroxyphenyl)phenyl]piperazine-1-carboxylic acid isobutyl ester]	> 15	–
CC(C)C[C@@H](O)C(=O)N1CCN(c2cccc(-c3ccccc3C(F)F)c2)CC1 [Compound 2, 1-[4-[3-[2-(difluoromethyl)phenyl]phenyl]piperazin-1-yl]-2-hydroxy-4-methyl-pentan-1-one]	< 10	–
